# Data as given in US10011629B2, “Nucleoside analogs for treatment of the flaviviridae family of viruses and cancer” (Cocrystal Pharma, Inc., priority 2015, dated 2018).
# What was measured:
# [1] = target: HCV NS5B RNA polymerase GT 3a WT; experiment: NS5B enzyme assay, GT 3a WT; format: biochemical; conditions: NS5B enzyme GT 3a WT; average of two to three replicates ± SD
# Experimental: The 21-amino-acid C-terminal truncated HCV NS5B RNA polymerase can be cloned from the HCV replicon cells, modified with a six-His-terminal tail, expressed in a prokaryotic expression vector (pQE60; Qiagen), and subsequently purified over a Talon cobalt affinity resin column (Clontech, Palo Alto, Calif.).^1 Purification can be monitored by SDS-PAGE and Western blotting. The resulting purified protein can be dialyzed overnight against 50 mM sodium phosphate (pH 8.0)-300 mM sodium chloride-0.5% Triton X-100-50% glycerol-2 mM dithiothreitol. The dialysate maintains consistent activity for more than 6 months when stored at −20° C. Protein can be quantified with the Coomassie Plus protein assay reagent (Pierce) by using a bovine serum albumin standard from the same supplier.
# NS5B RNA polymerase reaction can be studied by monitoring the incorporation of ^32P-labeled UMP into the newly synthesized RNA strand by using minus IRES as the template. […] After the membrane is rinsed with water followed by rinsing with ethanol, the dots can be cut out and the radioactivity counted in a Packard liquid scintillation counter. The amount of product can be calculated on the basis of the total radioactivity in the reaction mixture. The rate of the reaction can be determined from the slope of the time course of product formation. […]
# [2] = target: T1, HCV NS5B RNA polymerase GT 3a L159F (Hepatitis C virus genotype 3a, UniProt Q81258, L2589F); experiment: NS5B enzyme assay, GT 3a L159F; format: biochemical; conditions: NS5B enzyme GT 3a L159F; average of two to three replicates ± SD
# T1 construct: The 21-amino-acid C-terminal truncated HCV NS5B RNA polymerase; His6; made in house
# T1 sequence (Q81258 2431-3000 L2589F): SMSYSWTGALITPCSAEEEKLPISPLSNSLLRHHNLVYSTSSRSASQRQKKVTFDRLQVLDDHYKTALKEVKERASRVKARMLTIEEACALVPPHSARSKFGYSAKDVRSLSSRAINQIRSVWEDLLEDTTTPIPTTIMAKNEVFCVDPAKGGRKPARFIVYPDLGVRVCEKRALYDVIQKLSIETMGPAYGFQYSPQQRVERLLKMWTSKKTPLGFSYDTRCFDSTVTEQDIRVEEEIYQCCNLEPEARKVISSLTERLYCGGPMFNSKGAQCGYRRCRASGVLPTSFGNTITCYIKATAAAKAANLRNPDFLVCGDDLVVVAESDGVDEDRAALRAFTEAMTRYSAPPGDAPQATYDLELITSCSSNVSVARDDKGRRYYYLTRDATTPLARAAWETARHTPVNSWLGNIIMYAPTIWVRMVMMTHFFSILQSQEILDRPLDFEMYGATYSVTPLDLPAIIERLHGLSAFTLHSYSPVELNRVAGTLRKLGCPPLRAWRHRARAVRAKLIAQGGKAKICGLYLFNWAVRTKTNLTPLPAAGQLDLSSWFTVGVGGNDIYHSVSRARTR
# Experimental: The 21-amino-acid C-terminal truncated HCV NS5B RNA polymerase can be cloned from the HCV replicon cells, modified with a six-His-terminal tail, expressed in a prokaryotic expression vector (pQE60; Qiagen), and subsequently purified over a Talon cobalt affinity resin column (Clontech, Palo Alto, Calif.).^1 Purification can be monitored by SDS-PAGE and Western blotting. The resulting purified protein can be dialyzed overnight against 50 mM sodium phosphate (pH 8.0)-300 mM sodium chloride-0.5% Triton X-100-50% glycerol-2 mM dithiothreitol. […] Protein can be quantified with the Coomassie Plus protein assay reagent (Pierce) by using a bovine serum albumin standard from the same supplier.
# [3] = target: human mitochondrial RNA polymerase (POLRMT) (Homo sapiens, UniProt O00411); experiment: In vitro human mitochondrial RNA polymerase (POLRMT) incorporation assay; conditions: 100 μM rNTP, 2 hr, normalized to natural rNTP
# Chain of human mitochondrial RNA polymerase (POLRMT) (O00411 42-1230): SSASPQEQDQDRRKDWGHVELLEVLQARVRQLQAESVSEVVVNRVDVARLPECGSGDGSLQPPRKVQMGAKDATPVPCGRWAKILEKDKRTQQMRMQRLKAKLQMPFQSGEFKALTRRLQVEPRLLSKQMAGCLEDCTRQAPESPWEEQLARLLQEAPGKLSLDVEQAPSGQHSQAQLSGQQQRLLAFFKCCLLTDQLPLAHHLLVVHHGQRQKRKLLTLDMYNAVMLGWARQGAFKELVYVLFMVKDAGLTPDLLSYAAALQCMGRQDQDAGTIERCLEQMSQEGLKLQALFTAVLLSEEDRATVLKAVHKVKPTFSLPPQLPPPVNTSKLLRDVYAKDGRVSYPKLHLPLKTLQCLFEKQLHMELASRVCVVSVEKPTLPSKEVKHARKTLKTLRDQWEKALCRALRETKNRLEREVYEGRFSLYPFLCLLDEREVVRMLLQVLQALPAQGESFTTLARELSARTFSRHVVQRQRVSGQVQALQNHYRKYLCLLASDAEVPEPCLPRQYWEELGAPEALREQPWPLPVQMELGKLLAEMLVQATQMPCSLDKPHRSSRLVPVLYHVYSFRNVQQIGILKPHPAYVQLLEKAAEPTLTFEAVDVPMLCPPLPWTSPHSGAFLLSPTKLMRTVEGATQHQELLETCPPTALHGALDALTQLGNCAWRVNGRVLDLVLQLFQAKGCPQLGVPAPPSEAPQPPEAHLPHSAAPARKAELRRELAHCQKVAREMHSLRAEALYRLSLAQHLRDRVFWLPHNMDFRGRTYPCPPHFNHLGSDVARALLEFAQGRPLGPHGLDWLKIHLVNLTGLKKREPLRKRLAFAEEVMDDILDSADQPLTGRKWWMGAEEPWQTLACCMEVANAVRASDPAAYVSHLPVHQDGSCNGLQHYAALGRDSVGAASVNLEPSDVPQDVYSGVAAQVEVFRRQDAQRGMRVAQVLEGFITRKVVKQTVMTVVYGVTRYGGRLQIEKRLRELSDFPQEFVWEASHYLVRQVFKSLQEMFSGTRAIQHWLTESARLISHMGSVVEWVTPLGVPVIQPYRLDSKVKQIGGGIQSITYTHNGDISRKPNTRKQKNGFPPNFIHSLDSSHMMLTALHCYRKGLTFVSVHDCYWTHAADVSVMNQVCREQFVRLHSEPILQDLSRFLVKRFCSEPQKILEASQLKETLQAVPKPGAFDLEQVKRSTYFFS
# Experimental: 125 nM of POLRMT was incubated with 500 nM of 5′-radiolabled RNA/DNA hybrid, 10 mM MgCl2 and 100 μM of the corresponding nucleoside triphosphate. For non-nucleoside analogs, 100 μM of inhibitor was added at the same time as 100 μM UTP. Incorporation was allowed to proceed for 2 h at 30° C. and reactions were stopped by the addition of 10 mM EDTA and formamide. Samples were visualized on 20% denaturing polyacrylamide gel. Data were analyzed by normalizing the product fraction for each nucleoside triphosphate analog to that of the corresponding natural nucleoside triphosphate.
# 100 μM of each rNTP was incubated with POLRMT enzyme and the appropriate DNA/RNA primer/template hybrid and incorporation was evaluated at 2 hr. Nucleoside triphosphate analog incorporation was normalized to that of natural rNTP substrates.
structure (smiles),measurement,setting,value
C[C@@]1(F)[C@H](O)[C@@H](COP(=O)(O)OP(=O)(O)OP(=O)(O)O)O[C@H]1n1ccc(=O)[nH]c1=O [2′-Me-2′-F-UTP],EC50,[1],7.2 ± 2.1 µM
same,EC50,[2],5.2 ± 1.4 µM
same,incorporation by POLRMT as compared to natural UTP,[3],3.1%
